Marks after values point to notes of the source that are not given here.
Assays:
Assay type in all cases: in vivo, mouse
[1] = Analysis of radiometabolites in urine by RP-HPLC; settings: normal ddY mice, urine up to 6 h after injection
Procedure: Urine samples were collected from 6-week-old ddY mice 6 h after injection of each ^125I-labeled PSMA derivative (100 µL, 370 kBq). After ethanol precipitation of proteins, the urine samples were filtered through a polycarbonate membrane (0.45 µm) and analyzed by RP-HPLC (System 2).

[2] = test system: LNCaP cell xenografts; assay: Biodistribution of radioactivity in tumor-bearing mice; settings: for Radioactivity in Intestine / Radioactivity in Neck / Radioactivity in Stomach: LNCaP tumor-bearing BALB/c-nu/nu mice; for Radioactivity in Blood / Radioactivity in Bone / Radioactivity in Heart / Radioactivity in Kidney / Radioactivity in Liver / Radioactivity in Lung / Radioactivity in Muscle / Radioactivity in Pancreas / Radioactivity in Spleen / Radioactivity in Tumor: male, BALB/c-nu/nu, mouse, in vivo
Procedure: Animal studies were conducted in accordance with the institutional guidelines approved by the Chiba University Animal Care Committee (Permit No. 4–183). Five-week-old male ddY mice and BALB/c-nu/nu mice were purchased from Japan SLC Inc. (Hamamatsu, Japan). LNCaP cells (5.0 × 10^6 cells) were suspended in 100 μL of PBS and Matrigel (BD Biosciences, Franklin Lakes, NJ, USA) in a 1:1 ratio. Tumor xenograft models were prepared via subcutaneous injection of this LNCaP cell suspension into BALB/c nude mice.
(§1) Biodistribution studies were conducted using male BALB/c-nu/nu mice bearing LNCaP cell xenografts at 1 and 3 h postinjection of [^211At]At-NpG-D-PSMA (100 µL, 37 kBq) and 1 and 6 h postinjection of ^125I-labeled PSMA derivative (100 µL, 11.1 kBq). In the blocking study, [^125I]I-NpG-D-PSMA was coinjected with 2-PMPA (50 mg/kg weight) into tumor-bearing mice via the tail vein. At 1 h postinjection, the mice were sacrificed. The tissues of interest were excised and weighed, and the radioactivity counts in each tissue were determined using an auto-well gamma counter. Each value was expressed as the mean percent injected dose/g tissue ± SD for a group of 3–5 animals, except those for the stomach, intestine, and thyroid.

[3] = target: PSMA (Homo sapiens, UniProt Q04609); assay: Blocking study with 2-PMPA in tumor-bearing mice; parameters: Tumor accumulation of [^125I]I-NpG-D-PSMA with or without 2-PMPA; from tissue; host or cells: LNCaP xenograft tumor in male BALB/c-nu/nu mice; settings: LNCaP tumor-bearing mice, 2-PMPA 50 mg/kg coinjected, 1 h
Procedure: as §1

[4] = Biodistribution of radioactivity in normal mice
Procedure: Six-week-old male ddY mice were injected via the tail vein with each radiolabeled PSMA derivative. Animals were sacrificed and the organs were dissected at 10 min, 1 h, 3 h, and 6 h after injection. Metabolic cages were used for housing normal mice. The tissues of interest were excised and weighed, and the radioactivity counts in each tissue were determined using an auto-well gamma counter. Each value was expressed as the mean percent injected dose/g tissue ± SD for a group of 3–5 animals, except those for the stomach, intestine, and thyroid.

[5] = normal ddY mice, i.v., 6 h, metabolic cages

Sequence of PSMA (Q04609 whole entry): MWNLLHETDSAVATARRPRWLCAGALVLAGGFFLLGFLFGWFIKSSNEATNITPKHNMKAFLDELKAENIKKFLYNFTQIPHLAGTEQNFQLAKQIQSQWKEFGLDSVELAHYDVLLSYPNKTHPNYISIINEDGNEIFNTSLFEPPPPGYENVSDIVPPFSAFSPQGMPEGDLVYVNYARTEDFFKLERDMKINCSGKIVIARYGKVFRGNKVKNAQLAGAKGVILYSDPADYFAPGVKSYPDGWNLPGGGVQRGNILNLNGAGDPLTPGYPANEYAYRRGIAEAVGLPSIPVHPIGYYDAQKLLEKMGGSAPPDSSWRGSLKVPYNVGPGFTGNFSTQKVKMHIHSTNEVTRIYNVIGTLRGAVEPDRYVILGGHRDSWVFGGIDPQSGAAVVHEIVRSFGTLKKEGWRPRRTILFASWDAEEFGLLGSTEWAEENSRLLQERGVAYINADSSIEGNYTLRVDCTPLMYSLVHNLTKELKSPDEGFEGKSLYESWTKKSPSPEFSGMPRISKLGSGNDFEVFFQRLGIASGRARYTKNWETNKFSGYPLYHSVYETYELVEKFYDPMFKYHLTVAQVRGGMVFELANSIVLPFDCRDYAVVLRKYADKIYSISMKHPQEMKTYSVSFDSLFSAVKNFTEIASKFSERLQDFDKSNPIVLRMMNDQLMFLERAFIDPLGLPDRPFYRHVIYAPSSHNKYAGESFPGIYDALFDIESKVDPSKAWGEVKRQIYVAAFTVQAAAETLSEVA

O=C(O)CCC(NC(=O)NC(CCCCNC(=O)C(Cc1ccc2ccccc2c1)NC(=O)C(CCC(=O)O)NC(=O)C(CCC(=O)O)NC(=O)COCC(CO)(CO)C[125I])C(=O)O)C(=O)O [[^125I]I-NpG-D-PSMA]
Form of radioactivity excreted in urine [1]: only intact [^125I]I-NpG-D-PSMA | Radioactivity in Intestine ([2]; 1 h): 1.66 ± 0.29 %ID | Radioactivity in Neck ([2]; 1 h): 0.77 ± 0.17 %ID | Radioactivity in Stomach ([2]; 1 h): 0.19 ± 0.04 %ID | Radioactivity in Intestine ([2]; 6 h): 1.51 ± 0.61 %ID | Radioactivity in Neck ([2]; 6 h): 0.10 ± 0.01 %ID | Radioactivity in Stomach ([2]; 6 h): 0.17 ± 0.10 %ID | Radioactivity in Blood ([2]; 1 h): 0.64 ± 0.04 %ID/g | Radioactivity in Bone ([2]; 1 h): 0.25 ± 0.02 %ID/g | Radioactivity in Heart ([2]; 1 h): 0.89 ± 0.09 %ID/g | Radioactivity in Kidney ([2]; 1 h): 275 ± 17.6 %ID/g | Radioactivity in Liver ([2]; 1 h): 0.79 ± 0.06 %ID/g | Radioactivity in Lung ([2]; 1 h): 2.80 ± 0.09 %ID/g | Radioactivity in Muscle ([2]; 1 h): 0.27 ± 0.05 %ID/g | Radioactivity in Pancreas ([2]; 1 h): 0.84 ± 0.25 %ID/g | Radioactivity in Spleen ([2]; 1 h): 30.5 ± 7.49 %ID/g | Radioactivity in Tumor ([2]; 1 h): 20.4 ± 6.92 %ID/g | Radioactivity in Blood ([2]; 6 h): 0.06 ± 0.03 %ID/g | Radioactivity in Bone ([2]; 6 h): 0.07 ± 0.02 %ID/g | Radioactivity in Heart ([2]; 6 h): 0.10 ± 0.04 %ID/g | Radioactivity in Kidney ([2]; 6 h): 160 ± 89.9 %ID/g | Radioactivity in Liver ([2]; 6 h): 0.07 ± 0.03 %ID/g | Radioactivity in Lung ([2]; 6 h): 0.22 ± 0.09 %ID/g | Radioactivity in Muscle ([2]; 6 h): 0.07 ± 0.04 %ID/g | Radioactivity in Pancreas ([2]; 6 h): 0.12 ± 0.05 %ID/g | Radioactivity in Spleen ([2]; 6 h): 1.55 ± 0.75 %ID/g | Radioactivity in Tumor ([2]; 6 h): 20.8 ± 6.84 %ID/g | Accumulation in the tumor and spleen with coinjected 2-PMPA [3]: inhibited by 2-PMPA | Radioactivity in Blood ([4]; normal ddY mice, i.v., 10 min): 1.31 ± 0.10^c %ID/g | Radioactivity in Bone ([4]; normal ddY mice, i.v., 10 min): 0.71 ± 0.07^c %ID/g | Radioactivity in Heart ([4]; normal ddY mice, i.v., 10 min): 0.76 ± 0.08^c %ID/g | Radioactivity in Intestine ([4]; normal ddY mice, i.v., 10 min): 2.76 ± 0.02^c %ID | Radioactivity in Kidney ([4]; normal ddY mice, i.v., 10 min): 58.5 ± 2.27^c %ID/g | Radioactivity in Liver ([4]; normal ddY mice, i.v., 10 min): 0.83 ± 0.12^c %ID/g | Radioactivity in Lung ([4]; normal ddY mice, i.v., 10 min): 2.11 ± 0.16^c %ID/g | Radioactivity in Muscle ([4]; normal ddY mice, i.v., 10 min): 0.47 ± 0.07^c %ID/g | Radioactivity in Neck ([4]; normal ddY mice, i.v., 10 min): 0.48 ± 0.06^c %ID | Radioactivity in Pancreas ([4]; normal ddY mice, i.v., 10 min): 0.63 ± 0.15^c %ID/g | Radioactivity in Spleen ([4]; normal ddY mice, i.v., 10 min): 2.09 ± 0.83 %ID/g | Radioactivity in Stomach ([4]; normal ddY mice, i.v., 10 min): 0.28 ± 0.06 %ID | Radioactivity in Blood ([4]; normal ddY mice, i.v., 1 h): 0.18 ±0.02 %ID/g | Radioactivity in Bone ([4]; normal ddY mice, i.v., 1 h): 0.30 ± 0.25 %ID/g | Radioactivity in Heart ([4]; normal ddY mice, i.v., 1 h): 0.14 ± 0.7 %ID/g | Radioactivity in Intestine ([4]; normal ddY mice, i.v., 1 h): 2.97 ± 0.24^c %ID | Radioactivity in Kidney ([4]; normal ddY mice, i.v., 1 h): 74.6 ± 14.9^c %ID/g | Radioactivity in Liver ([4]; normal ddY mice, i.v., 1 h): 0.17 ± 0.07 %ID/g | Radioactivity in Lung ([4]; normal ddY mice, i.v., 1 h): 0.38 ± 0.06 %ID/g | Radioactivity in Muscle ([4]; normal ddY mice, i.v., 1 h): 0.11 ± 0.08 %ID/g | Radioactivity in Neck ([4]; normal ddY mice, i.v., 1 h): 0.11 ± 0.03^c %ID | Radioactivity in Spleen ([4]; normal ddY mice, i.v., 1 h): 0.20 ± 0.01 %ID/g | Radioactivity in Stomach ([4]; normal ddY mice, i.v., 1 h): 0.18 ± 0.00 %ID | Radioactivity in Blood ([4]; normal ddY mice, i.v., 3 h): 0.04 ± 0.02 %ID/g | Radioactivity in Bone ([4]; normal ddY mice, i.v., 3 h): 0.21 ± 0.28 %ID/g | Radioactivity in Heart ([4]; normal ddY mice, i.v., 3 h): 0.05 ± 0.04 %ID/g | Radioactivity in Intestine ([4]; normal ddY mice, i.v., 3 h): 3.30 ± 0.08^c %ID | Radioactivity in Kidney ([4]; normal ddY mice, i.v., 3 h): 22.9 ± 16.5 %ID/g | Radioactivity in Liver ([4]; normal ddY mice, i.v., 3 h): 0.05 ± 0.03 %ID/g | Radioactivity in Lung ([4]; normal ddY mice, i.v., 3 h): 0.12 ± 0.05 %ID/g | Radioactivity in Muscle ([4]; normal ddY mice, i.v., 3 h): 0.05 ± 0.03 %ID/g | Radioactivity in Neck ([4]; normal ddY mice, i.v., 3 h): 0.03 ± 0.02^c %ID | Radioactivity in Pancreas ([4]; normal ddY mice, i.v., 3 h): 0.20 ± 0.31 %ID/g | Radioactivity in Spleen ([4]; normal ddY mice, i.v., 3 h): 0.07 ± 0.05 %ID/g | Radioactivity in Stomach ([4]; normal ddY mice, i.v., 3 h): 0.27 ± 0.10^c %ID | Radioactivity in Blood ([4]; normal ddY mice, i.v., 6 h): 0.03 ± 0.01 %ID/g | Radioactivity in Bone ([4]; normal ddY mice, i.v., 6 h): 0.16 ± 0.17 %ID/g | Radioactivity in Heart ([4]; normal ddY mice, i.v., 6 h): 0.03 ± 0.01 %ID/g | Radioactivity in Intestine ([4]; normal ddY mice, i.v., 6 h): 6.19 ± 4.27 %ID | Radioactivity in Kidney ([4]; normal ddY mice, i.v., 6 h): 17.5 ± 5.43^c %ID/g | Radioactivity in Liver ([4]; normal ddY mice, i.v., 6 h): 0.05 ±0.03 %ID/g | Radioactivity in Lung ([4]; normal ddY mice, i.v., 6 h): 0.08 ± 0.00^c %ID/g | Radioactivity in Muscle ([4]; normal ddY mice, i.v., 6 h): 0.06 ± 0.07 %ID/g | Radioactivity in Neck ([4]; normal ddY mice, i.v., 6 h): 0.07 ± 0.09 %ID | Radioactivity in Pancreas ([4]; normal ddY mice, i.v., 6 h): 0.09 ± 0.12 %ID/g | Radioactivity in Spleen ([4]; normal ddY mice, i.v., 6 h): 0.05 ± 0.05 %ID/g | Radioactivity in Stomach ([4]; normal ddY mice, i.v., 6 h): 0.86 ± 0.65 %ID | Radioactivity in Feces [4, 5]: 0.66 ± 0.50 %ID | Radioactivity in Urine [4, 5]: 30.7 ± 2.85^c %ID | Accumulation in the stomach and thyroid (stability against deiodination) ([4]; normal mice): low accumulation
